One assay addresses T1, T. brucei CRK1 (Trypanosoma brucei brucei, UniProt P38973).
T1 sequence (P38973 1-301): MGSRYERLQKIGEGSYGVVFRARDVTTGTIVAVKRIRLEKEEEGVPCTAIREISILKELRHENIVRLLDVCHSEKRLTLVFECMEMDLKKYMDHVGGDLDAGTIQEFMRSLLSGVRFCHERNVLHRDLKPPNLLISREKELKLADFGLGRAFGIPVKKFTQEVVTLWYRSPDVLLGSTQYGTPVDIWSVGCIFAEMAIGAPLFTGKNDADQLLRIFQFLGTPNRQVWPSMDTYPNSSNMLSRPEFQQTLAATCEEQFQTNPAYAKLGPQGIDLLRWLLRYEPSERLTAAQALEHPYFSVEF
Put plainly: Kinobead profiling, T. brucei lysate, CRK1. The class given is binding. The note with it: T. brucei cell lysate.

In assay [1] the test system is human kinome in primary chronic lymphocytic leukemia cells. The note with it: cited from earlier work.
In the next assay the test system is CDK9. The note with it: primary chronic lymphocytic leukemia cells; cited from earlier work.
A further assay concerns CRK7. Conditions: primary chronic lymphocytic leukemia cells; cited from earlier work.
For a further assay, the system named is PCSTAIRE2. Conditions: primary chronic lymphocytic leukemia cells; cited from earlier work.

Take `CC(C)(C)c1cnc(CSc2cnc(NC(=O)C3CCNCC3)s2)o1` [BMS-387032]: the “kinobead inhibition of CRK1” value on T. brucei CRK1 is “no inhibition”. Moreover, the “observed CDKs inhibited” value in assay [1] was “all of the seven”. Also, the “kinobead IC50, CDK9” value in the assay with CDK9 is “submicromolar”. The “kinobead IC50, CRK7” value with CRK7 is “submicromolar”. The “kinobead IC50, PCSTAIRE2” value in the assay with PCSTAIRE2 is listed as “submicromolar”.

The record behind these values is PMC3621575 (ACS Chemical Biology, 2012).
